Assay results from US20130005747A1, “METHOD FOR SELECTING A CANCER THERAPY” (Cyclacel Limited, priority 2010, published 2013).

How the values were obtained:
Test in all cases: Fractional growth, 72 h seliciclib
Format in all cases: cell-based, human
[1] = system: NCI-H2228; conditions: NCI-H2228 (Lung: NSCLC), 15 μM seliciclib
Source text: (§1) A total of 270 human cancer cell lines from diverse cancer histopathologic types were investigated.

[2] = system: WM 266-4; conditions: WM 266-4 (Skin), 15 μM seliciclib
Source text: as §1

[3] = system: CAL-62; conditions: CAL-62 (Thyroid), 15 μM seliciclib
Source text: as §1

[4] = system: BHT-101; conditions: BHT-101 (Thyroid), 15 μM seliciclib
Source text: as §1

[5] = system: KP-1N; conditions: KP-1N (Pancreas), 15 μM seliciclib
Source text: as §1

[6] = system: AU565; conditions: AU565 (Breast), 15 μM seliciclib
Source text: as §1

[7] = system: HT 1080; conditions: HT 1080 (Miscellaneous), 15 μM seliciclib
Source text: as §1

[8] = system: Caki-1; conditions: Caki-1 (Kidney), 15 μM seliciclib
Source text: as §1

[9] = system: RERF-LC-Sq1; conditions: RERF-LC-Sq1 (Lung: NSCLC), 15 μM seliciclib
Source text: as §1

[10] = system: IGR-1; conditions: IGR-1 (Skin), 15 μM seliciclib
Source text: as §1

[11] = system: HT 1376; conditions: HT 1376 (Bladder), 15 μM seliciclib
Source text: as §1

[12] = system: PFSK-1; conditions: PFSK-1 (Brain), 15 μM seliciclib
Source text: as §1

[13] = system: H2596; conditions: H2596 (Lung), 15 μM seliciclib
Source text: as §1

[14] = system: DAN-G; conditions: DAN-G (Pancreas), 15 μM seliciclib
Source text: as §1

[15] = system: PA-TU-8902; conditions: PA-TU-8902 (Pancreas), 15 μM seliciclib
Source text: as §1

[16] = system: HOS; conditions: HOS (Bone), 15 μM seliciclib
Source text: as §1

[17] = system: T47D; conditions: T47D (Breast), 15 μM seliciclib
Source text: as §1

[18] = system: CS1R; conditions: CS1R (Bone), 15 μM seliciclib
Source text: as §1

[19] = system: SN-12C; conditions: SN-12C (Kidney), 15 μM seliciclib
Source text: as §1

[20] = system: SW 780; conditions: SW 780 (Bladder), 15 μM seliciclib
Source text: as §1

[21] = system: SCaBER; conditions: SCaBER (Bladder), 15 μM seliciclib
Source text: as §1

[22] = system: LU99B; conditions: LU99B (Lung: NSCLC), 15 μM seliciclib
Source text: as §1

[23] = system: G-402; conditions: G-402 (Kidney), 15 μM seliciclib
Source text: as §1

[24] = system: CAL-29; conditions: CAL-29 (Bladder), 15 μM seliciclib
Source text: as §1

[25] = system: OVCAR-5; conditions: OVCAR-5 (Ovary), 15 μM seliciclib
Source text: as §1

[26] = system: 639-V; conditions: 639-V (Bladder), 15 μM seliciclib
Source text: as §1

[27] = system: KP-3; conditions: KP-3 (Pancreas), 15 μM seliciclib
Source text: as §1

[28] = system: SK-MES; conditions: SK-MES (Lung: NSCLC), 15 μM seliciclib
Source text: as §1

[29] = system: Ca9-22; conditions: Ca9-22 (Head & Neck), 15 μM seliciclib
Source text: as §1

[30] = system: HTC-C3; conditions: HTC-C3 (Thyroid), 15 μM seliciclib
Source text: as §1

[31] = system: NCI-H2347; conditions: NCI-H2347 (Lung: NSCLC), 15 μM seliciclib
Source text: as §1

[32] = system: HCC38; conditions: HCC38 (Breast), 15 μM seliciclib
Source text: as §1

[33] = system: DBTRG-05MG; conditions: DBTRG-05MG (Brain), 15 μM seliciclib
Source text: as §1

[34] = system: VMRC-RCZ; conditions: VMRC-RCZ (Kidney), 15 μM seliciclib
Source text: as §1

[35] = system: NCI-H1568; conditions: NCI-H1568 (Lung: NSCLC), 15 μM seliciclib
Source text: as §1

[36] = system: NCI-H1048; conditions: NCI-H1048 (Lung), 15 μM seliciclib
Source text: as §1

[37] = system: LU99A; conditions: LU99A (Lung: NSCLC), 15 μM seliciclib
Source text: as §1

Question: Which “Fractional Growth” value [1] does the source give for `CC[C@H](CO)Nc1nc(NCc2ccccc2)c2ncn(C(C)C)c2n1` [seliciclib, roscovitine] here?
Answer: 0.6493

Question: What about the “Fractional Growth” value [2] of the same molecule?
Answer: 0.4972

Question: And the “Fractional Growth” value [3]?
Answer: 0.3139

Question: What about the “Fractional Growth” value [4] of the same molecule?
Answer: 0.4486

Question: What about the “Fractional Growth” value [5] of the same molecule?
Answer: 0.6045

Question: What about the “Fractional Growth” value [6] of the same molecule?
Answer: 0.4762

Question: What about the “Fractional Growth” value [7] of the same molecule?
Answer: 0.2044

Question: And the “Fractional Growth” value [8]?
Answer: 0.3885

Question: And the “Fractional Growth” value [9]?
Answer: 0.6428

Question: What about the “Fractional Growth” value [10] of the same molecule?
Answer: 0.5764

Question: What about the “Fractional Growth” value [11] of the same molecule?
Answer: 0.6897

Question: What about the “Fractional Growth” value [12] of the same molecule?
Answer: 0.249

Question: And the “Fractional Growth” value [13]?
Answer: 0.7486

Question: And the “Fractional Growth” value [14]?
Answer: 0.6841

Question: And the “Fractional Growth” value [15]?
Answer: 0.5577

Question: What about the “Fractional Growth” value [16] of the same molecule?
Answer: 0.617

Question: And the “Fractional Growth” value [17]?
Answer: 0.6314

Question: And the “Fractional Growth” value [18]?
Answer: 0.2923

Question: What about the “Fractional Growth” value [19] of the same molecule?
Answer: 0.6383

Question: And the “Fractional Growth” value [20]?
Answer: 0.3743

Question: And the “Fractional Growth” value [21]?
Answer: 0.5642

Question: And the “Fractional Growth” value [22]?
Answer: 0.2318

Question: What about the “Fractional Growth” value [23] of the same molecule?
Answer: 0.2708

Question: And the “Fractional Growth” value [24]?
Answer: 0.5744

Question: And the “Fractional Growth” value [25]?
Answer: 0.4053

Question: What about the “Fractional Growth” value [26] of the same molecule?
Answer: 0.4196

Question: What about the “Fractional Growth” value [27] of the same molecule?
Answer: 0.3396

Question: What about the “Fractional Growth” value [28] of the same molecule?
Answer: 0.4439

Question: What about the “Fractional Growth” value [29] of the same molecule?
Answer: 0.4623

Question: And the “Fractional Growth” value [30]?
Answer: 0.3914

Question: And the “Fractional Growth” value [31]?
Answer: 0.3299

Question: What about the “Fractional Growth” value [32] of the same molecule?
Answer: 0.8297

Question: What about the “Fractional Growth” value [33] of the same molecule?
Answer: 0.7139

Question: And the “Fractional Growth” value [34]?
Answer: 0.5994

Question: What about the “Fractional Growth” value [35] of the same molecule?
Answer: 0.3317

Question: And the “Fractional Growth” value [36]?
Answer: 0.5502

Question: And the “Fractional Growth” value [37]?
Answer: 0.0948
